Source: PubChem BioAssay (NCI)
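Cells were grown in 96-well plates and exposed to each compound for 48 hours at five concentrations; endpoints were interpolated linearly between bracketing concentrations, or set to the highest concentration if not reached. TGI: concentration producing complete growth inhibition.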

Tests used:
Assay in all cases: DTP human tumour cell line panel, 48 h
[1] = system: HT29 colon
[2] = system: K-562 leukemia
[3] = system: MDA-MB-435
[4] = system: SK-MEL-5 melanoma

Measured: TGI

CCOC(O)C(F)(F)F (centres undefined)
> 100 µM: all assays above
